Experimental data taken from patent US10059945B2, “Methods of controlling cell fate and consequences for disease” (THE GENERAL HOSPITAL CORPORATION, priority 2014, dated 2018).

System: reprogrammable MEFs
Assay: alkaline phosphatase-positive (AP+) transgene-independent iPSC colony formation
Format: cell-based, mouse
Conditions: 4-factor reprogrammable cells, doxycycline
Method: Transfections of RepMEFs with siRNAs were performed in 12-well plates at the time of dox administration. Per 12-well plate, 2 ul of Lipofectamine™ 2000 was added to 75 ul of Optimem™ (Life Technologies™) and 1.5 ul of siRNA (esiRNA, Sigma™) was added to 75 ul of Optimem™; both mixtures were separately incubated at room temperature for 5 minutes, then combined and incubated for another 15 minutes before adding the solution to the reprogramming media (normal media lacking antibiotics). After overnight incubation, the transfection media was replaced with regular reprogramming media.

Row | generation of AP+ iPSC colonies, small molecules vs knockdown alone | Structure (SMILES)
1 | significantly enhanced | Cc1c[nH]c(-c2cnc(NCCNc3ccc(C#N)cn3)nc2-c2ccc(Cl)cc2Cl)n1 [Gsk3 inhibitor, CHIR99021]
2 | significantly enhanced | O=C1O[C@H]([C@@H](O)CO)C(O)=C1O [ascorbic acid, L-Ascorbic acid]
